From patent US12655116B2, “Substituted isophthalic acid diamides” (Bayer Aktiengesellschaft, priority 2020, dated 2026)

What was measured:
MATIN [1] = test: Pre-emergence herbicidal action against MATIN; type: in vivo, Matricaria inodora
In short: (§1)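 Herbicidal effect was assessed 3 weeks after treatment by visual comparison with untreated controls, 100% denoting dead plants. Aqueous WP or EC preparations had been applied at 600 to 800 l/ha with 0.2% wetting agent to the soil covering freshly sown seeds.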

POLCO = test: Pre-emergence herbicidal action against POLCO; type: in vivo, Polygonum convolvulus
Source text: Seeds of monocotyledonous and dicotyledonous weed plants and crop plants are laid out in sandy loam soil in wood-fiber pots and covered with soil. The compounds of the invention, formulated in the form of wettable powders (WP) or as emulsion concentrates (EC), are then applied to the surface of the covering soil in the form of an aqueous suspension or emulsion at a water application rate equivalent to 600 to 800 l/ha, with addition of 0.2% wetting agent. After the treatment, the pots are placed in a greenhouse and kept under good growth conditions for the trial plants. The damage to the test plants is scored visually after a test period of 3 weeks by comparison with untreated controls (herbicidal activity in percent (%): 100% activity=the plants have died, 0% activity=like control plants). […] The tables below illustrate, in an illustrative manner, the post-emergence herbicidal action of the compounds of the invention, the herbicidal activity being stated in percent.

ABUTH [2] = test: Pre-emergence herbicidal action against ABUTH; type: in vivo, Abutilon theophrasti; details: for Pre-emergence action against ABUTH (herbicidal activity in percent): dosage 20 g/ha, scored visually after 3 weeks vs untreated controls, 100% = plants have died, 0% = like control plants
In short: as §1

AMARE [3] = test: Pre-emergence herbicidal action against AMARE; type: in vivo, Amaranthus retroflexus
In short: as §1

ALOMY [4] = test: Pre-emergence herbicidal action against ALOMY; type: in vivo, Alopecurus myosuroides; details: 80 g/ha, pre-emergence, scored visually after 3 weeks vs untreated controls (100% = plants have died, 0% = like control plants)
In short: as §1

ECHCG [5] = test: Pre-emergence herbicidal action against ECHCG; type: in vivo, Echinochloa crus-galli; details: 80 g/ha
In short: as §1

DIGSA [6] = test: Pre-emergence herbicidal action against DIGSA; type: in vivo, Digitaria sanguinalis
In short: as §1

SETVI [7] = test: Pre-emergence herbicidal action against SETVI; type: in vivo, Setaria viridis
In short: as §1

PHBPU = test: Post-emergence herbicidal action against PHBPU; type: in vivo, Pharbitis purpurea
In short: (§2)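 Post-emergence greenhouse test; one-leaf stage, 2–3 wk post-sowing, sandy loam. Foliar spray of WP/EC in water, 600–800 l/ha, +0.2% wetting agent. Visual % action at ~3 wk vs untreated (100% = plants dead).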

VIOTR [8] = test: Pre-emergence herbicidal action against VIOTR; type: in vivo, Viola tricolor
In short: as §1

VIOTR [9] = test: Post-emergence herbicidal action against VIOTR; type: in vivo, Viola tricolor; details: 20 g/ha
In short: as §2

VERPE [10] = test: Pre-emergence herbicidal action against VERPE; type: in vivo, Veronica persica; details: dosage 80 g/ha
In short: as §1

AVEFA = test: Pre-emergence herbicidal action against AVEFA; type: in vivo, Avena fatua; details: 80 g/ha, pre-emergence
In short: as §1

ABUTH [11] = test: Post-emergence herbicidal action against ABUTH; type: in vivo, Abutilon theophrasti; details: visual assessment about 3 weeks after treatment vs untreated controls
In short: as §2

MATIN [12] = test: Post-emergence herbicidal action against MATIN; type: in vivo, Matricaria inodora; details: dosage 20 g/ha
In short: as §2

SETVI [13] = test: Post-emergence herbicidal action against SETVI; type: in vivo, Setaria viridis; details: dosage 20 g/ha
In short: as §2

ECHCG [14] = test: Post-emergence herbicidal action against ECHCG; type: in vivo, Echinochloa crus-galli
In short: as §2

VERPE [15] = test: Post-emergence herbicidal action against VERPE; type: in vivo, Veronica persica; details: 20 g/ha
In short: as §2

AMARE [16] = test: Post-emergence herbicidal action against AMARE; type: in vivo, Amaranthus retroflexus; details: 20 g/ha, visual assessment about 3 weeks after treatment, 100% = plants have died, 0% = like control plants
In short: as §2

DIGSA [17] = test: Post-emergence herbicidal action against DIGSA; type: in vivo, Digitaria sanguinalis; details: 20 g/ha
In short: as §2

ALOMY [18] = test: Post-emergence herbicidal action against ALOMY; type: in vivo, Alopecurus myosuroides; details: dosage 20 g/ha, visual assessment about 3 weeks after treatment vs untreated controls
In short: as §2

[19] = 80 g/ha, scored visually after 3 weeks vs untreated controls (100% = plants have died, 0% = like control plants)
[20] = 20 g/ha, scored visually after 3 weeks vs untreated controls, 100% = plants have died, 0% = like control plants

Row | SMILES | Pre-emergence action against MATIN in % (MATIN [1]; dosage 20 g/ha) [%] | Pre-emergence action against MATIN in % (MATIN [1]; dosage 80 g/ha) [%] | Pre-emergence action against POLCO in % (POLCO; dosage 80 g/ha) [%] | Pre-emergence action against ABUTH (herbicidal activity) (ABUTH [2]; [19]) [%] | Pre-emergence action against ABUTH (herbicidal activity in percent) (ABUTH [2]) [%] | Pre-emergence action against AMARE in % (AMARE [3]; [20]) [%] | Pre-emergence action against AMARE in % (AMARE [3]; [19]) [%] | Pre-emergence action against ALOMY (herbicidal activity) (ALOMY [4]) [%] | Pre-emergence action against ECHCG in % (ECHCG [5]) [%] | Pre-emergence action against DIGSA in % (DIGSA [6]; dosage 20 g/ha) [%] | Pre-emergence action against DIGSA in % (DIGSA [6]; dosage 80 g/ha) [%] | Pre-emergence action against SETVI in % (SETVI [7]; dosage 80 g/ha) [%] | Post-emergence action against PHBPU in % (PHBPU; dosage 20 g/ha) [%] | Pre-emergence action against VIOTR in % (VIOTR [8]; dosage 20 g/ha) [%] | Pre-emergence action against VIOTR in % (VIOTR [8]; dosage 80 g/ha) [%] | Post-emergence action against VIOTR in % (VIOTR [9]) [%] | Pre-emergence action against VERPE in % (VERPE [10]) [%] | Pre-emergence action against AVEFA in % (AVEFA) [%] | Post-emergence action against ECHCG in % (ECHCG [14]; dosage 20 g/ha) [%] | Post-emergence action against ABUTH in % (ABUTH [11]; dosage 20 g/ha) [%] | also measured
1 | Cn1nnnc1NC(=O)c1ccc(Br)c(C(=O)NCC2CC2)c1Cl [Example 1-180] | 90 | 100 | 100 | 100 | 90 | 100 | 100 | 100 | 100 | 100 | 100 | 90 | 90 | 80 | 100 | 90 | 80 | 80 | – | – | Post-emergence action against PHBPU in % (PHBPU; dosage 5 g/ha): 90%
2 | CC(=O)NC(=O)c1c(C(F)(F)F)ccc(C(=O)Nc2nnnn2C)c1Cl [Example 1-337] | – | – | – | – | – | – | – | – | – | – | – | – | – | – | – | – | – | – | – | – | pest or weed control at 20 g/ha (POLCO; Fallopia convolvulus, 504 h, dosage 20 g/ha): 80%; pest or weed control at 80 g/ha (POLCO; Fallopia convolvulus, 504 h, dosage 80 g/ha): 80%; pest or weed control at 80 g/ha (ABUTH [2]; Abutilon theophrasti, 504 h, 80 g/ha, scored visually after 3 weeks vs untreated controls (100% = plants have died, 0% = like control plants)): 100%; pest or weed control at 20 g/ha (AMARE [3]; Amaranthus retroflexus, 504 h, 20 g/ha, scored visually after 3 weeks vs untreated controls, 100% = plants have died, 0% = like control plants): 90%; pest or weed control at 80 g/ha (AMARE [3]; Amaranthus retroflexus, 504 h, 80 g/ha, scored visually after 3 weeks vs untreated controls, 100% = plants have died, 0% = like control plants): 100%; pest or weed control at 80 g/ha (DIGSA [6]; Digitaria sanguinalis, 504 h, dosage 80 g/ha): 100%; pest or weed control at 80 g/ha (SETVI [7]; Setaria viridis, 504 h, dosage 80 g/ha): 90%; pest or weed control at 20 g/ha (VIOTR [8]; Viola tricolor, 504 h, dosage 20 g/ha): 80%; pest or weed control at 80 g/ha (VIOTR [8]; Viola tricolor, 504 h, dosage 80 g/ha): 80%; pest or weed control at 20 g/ha (VIOTR [9]; Viola tricolor, 504 h): 80%; pest or weed control at 80 g/ha (VERPE [10]; Veronica persica, 504 h): 90%; pest or weed control at 20 g/ha (ABUTH [11]; Abutilon theophrasti, 504 h, dosage 20 g/ha): 80%
3 | CCn1nnnc1NC(=O)c1ccc(C(F)F)c(C(=O)NC)c1OC [Example 2-72] | 100 | 100 | 80 | 100 | 100 | 100 | 100 | 80 | 100 | 100 | 100 | 100 | 80 | 100 | 100 | 80 | 90 | – | 80 | 80 | Post-emergence action against MATIN in % (MATIN [12]): 80%; Post-emergence action against SETVI in % (SETVI [13]): 80%; Pre-emergence action against POLCO in % (POLCO; dosage 20 g/ha): 80%; Post-emergence action against ECHCG in % (ECHCG [14]; dosage 5 g/ha): 80%; Post-emergence action against VERPE in % (VERPE [15]): 80%; Post-emergence action against ABUTH in % (ABUTH [11]; dosage 5 g/ha): 80%
4 | CCn1nnnc1NC(=O)c1ccc(C(F)(F)F)c(C(=O)NCc2cccs2)c1Cl [Example 2-144] | – | 90 | 90 | – | – | 80 | 100 | – | 80 | – | 100 | – | 80 | – | 90 | – | 100 | – | – | – | Pre-emergence action against POLCO in % (POLCO; dosage 20 g/ha): 80%
5 | CCNC(=O)c1c(C(F)F)ccc(C(=O)Nc2nnc(C)o2)c1Br [Example 6-165] | 80 | 100 | 80 | 100 | – | 100 | 100 | 80 | 100 | 90 | 100 | 100 | – | 80 | 90 | 80 | – | – | 100 | 90 | Post-emergence action against SETVI in % (SETVI [13]): 80%; Post-emergence action against ECHCG in % (ECHCG [14]; dosage 5 g/ha): 90%; Pre-emergence action against SETVI in % (SETVI [7]; dosage 20 g/ha): 90%; Post-emergence action at 20 g/ha against AMARE in % (AMARE [16]): 80%; Post-emergence action against DIGSA (DIGSA [17]): 90%; Post-emergence action against ALOMY in % (ALOMY [18]): 80%
6 | CCNC(=O)c1c(C(F)(F)F)ccc(C(=O)Nc2nnc(C)o2)c1CC [Example 6-211] | – | 90 | 90 | 100 | 90 | 100 | 100 | 90 | 100 | – | – | 100 | – | – | 80 | – | 80 | 80 | 90 | 90 | Post-emergence action at 20 g/ha against AMARE in % (AMARE [16]): 90%; Post-emergence action against ABUTH in % (ABUTH [11]; dosage 5 g/ha): 80%
